The record followed here is PubChem BioAssay AID179 (DTP/NCI, 2004).

The test system of this assay is CEM cells HIV-1 protection, formazan growth assay. Kind of assay: NCI AIDS Antiviral Assay. The conditions noted are these: for pIC50: measured here: growth of uninfected CEM cells. In outline: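 Category rules: moderately active means at least 50% protection on retest, and confirmed active means 100% protection reproducibly. The underlying data came from a formazan growth assay in HIV-1-infected CEM cells.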

pEC50, pIC50: −log10 of the molar value. Calls of active or inactive are those of the source.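 The calls were made as follows: active = compounds giving half or more protection of infected cells from virus-caused growth loss, again on retest; inactive = the rest.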

With `NC(=N/N=C(/c1ccccc1)c1ccc(N)cc1)/C(N)=N\N=C(/c1ccccc1)c1ccc(N)cc1`, the result was inactive.

As for `O=C(O)c1ccccc1C(=O)CCC(=O)c1ccccc1C(=O)O`, the pEC50 (commonly the EC50 on a negative log10 scale, so that one unit is a factor of ten) is < 3.70 and the pIC50 – broadly, −log10 of the IC50, conventionally taken in molar units – was < 3.70.

In the case of `COC(=O)N1C[C@@]2(C=CC3(CC2)OCCO3)c2ccccc21`, the pEC50 was < 3.70 and the negative logarithm of the IC50 (pIC50) was 5.45. As for `COc1ccc2c(c1)N=C(N)n1c(nc3ccccc31)S2`, the pEC50 was < 3.70 and the negative-log IC50 (pIC50) was 5.18. Taken in the same sequence, the figures for `Cc1ccc([N+](=O)[O-])cc1NC1=NCCO1` were < 3.70 and 3.73.

As to `COc1ccc(N=C/C=C/Nc2ccc(OC)cc2)cc1`, the pEC50 was < 3.70 and the pIC50 is 5.13.

Regarding `O=C(Nc1ccccc1)C1CC=C2CCC3OC(=O)C1C23` (stereo not drawn), the pEC50 was < 3.48 and the pIC50 is < 3.48. `CCCC(=O)NC(Nc1ccc(S(=O)(=O)Nc2ccc(OC)nn2)cc1)(C(F)(F)F)C(F)(F)F`: the pEC50 was < 3.70 and the pIC50 is < 3.70. On to `CC(Cn1c2c3ccccc3ccc2c2oc(=O)c3ccccc3c21)N(C)C` (stereo not drawn), for which the pEC50 is < 5.41 and the pIC50 is < 5.41. Turning to `O=Cc1ccc(-c2ccc(-c3ccc(C=O)s3)o2)s1`, the result was inactive. On to `O=C(CC(C(=O)c1ccco1)c1ccco1)c1ccco1` (stereo not drawn), for which the pEC50 is < 3.70 and the pIC50 was 3.84.

`O=c1c(-c2cccc3ccccc23)c(-c2cccc3ccccc23)c1=O`: the outcome was inactive. Turning to `CN1C[C@H]2[C@@H](C1=O)[C@H](c1ccc([N+](=O)[O-])cc1)ON2C`, the pEC50 was < 3.70 and the pIC50 was < 3.70. Regarding `COC1/C=C/OC2(C)Oc3c(C)c(O)c4c(O)c(c(C=NOC(c5ccccc5)c5ccccc5)c(O)c4c3C2=O)NC(=O)/C(C)=C/C=C/C(C)C(O)C(C)C(O)C(C)C(OC(C)=O)C1C` (stereo not drawn), the pEC50 was < 3.70 and the pIC50 was 5.32. As to `COC(=O)Cc1c([C@H]2[C@H](CC(=O)OC)c3ccccc3N2S(=O)(=O)c2ccc(C)cc2)[nH]c2ccccc12`, the pEC50 is < 3.99 and the pIC50 is 4.94.

For the compound `COc1cc2c3c(c1)nnn3C(=O)CCS2`, the pEC50 is < 3.70 and the pIC50 was < 3.70. Regarding `COC(=O)C1=CCC(n2cnc3c(N)ncnc32)CC1` (stereo not drawn), the pEC50 was < 3.04 and the pIC50 was 3.96. Taken in the same sequence, the figures for `COC(=O)C1CCC(=O)N1C(c1ccc(OC)cc1)c1ccc2c(c1)OCO2` (stereo not drawn) were < 3.70 and 4.94. Turning to `Nc1nc(SSc2nc(N)nc3c2ncn3C2OC(CO)C(O)C2O)c2ncn(C3OC(CO)C(O)C3O)c2n1` (stereo not drawn), the pEC50 was < 4.70 and the pIC50 is 6.47. On to `Cc1ccc2c(n1)C(N1CCCCC1)=CC(=O)C2=O`, for which the outcome was inactive. Turning to `CC1=Nn2c(nnc2-c2ccc(Cl)cc2)NC(C)(C)C1`, the pEC50 was < 4.21 and the pIC50 was < 4.21. Take `CC(C)C1=C[C@@]23CCC4C(C)(C)CCC[C@]4(C(=O)O2)C3=CC1=O` (stereo partly drawn): the pEC50 was < 4.36 and the pIC50 is < 4.36. With `CCO/S(=N/S(=O)(=O)c1ccccc1)c1ccccc1[N+](=O)[O-]` (stereo not drawn), the pEC50 was < 3.15 and the pIC50 is 3.74. Taken in the same sequence, the figures for `CSc1ncc2c(C#N)c3sc4ccccc4n3c(=O)c2n1` were < 3.70 and < 3.70. Taken in the same sequence, the figures for `O=Cc1ccc2c(c1)CC1(C2)Cc2ccc3c(c2C1)CCC3` (stereo not drawn) were < 3.70 and 5.13. Taken in the same sequence, the figures for `CC1CSc2nc3[nH]c(=S)[nH]c3c(=O)n2C1` (stereo not drawn) were < 3.70 and < 3.70. Consider `CCCCC(CC)CO[Si](OCC(CC)CCCC)(OCC(CC)CCCC)OCC(CC)CCCC` (stereo not drawn), for which the outcome was inactive. Still for that read-out and setting: next, `N#CC1(Cc2ccc(N)cc2)c2ccccc2C=CN1C(=O)c1ccccc1` (stereo not drawn): “inactive”. As for `O=C(/C=C\c1ccsc1)c1ccccc1`, the pEC50 is < 3.70 and the pIC50 was 5.49. Taken in the same sequence, the figures for `CN(C)c1ccc(C(c2c(O)c3ccccc3oc2=O)c2c(O)c3ccccc3oc2=O)cc1` were < 3.70 and 4.56.

For the compound `COc1ccc(N(CN2C(=O)CCC2OC)C(C)=O)cc1` (stereo not drawn), the outcome was inactive. Consider `CNC(=O)CNC(=O)N(C[C@@H]1CCCN1C(=O)[C@H](CC(C)C)NC(=O)OC(C)(C)C)C(C)C`, for which the pEC50 is < 3.70 and the pIC50 was < 3.70. Turning to `CCCCCC=C(c1cc(C(=O)OC)c(OC)c(C(F)(F)F)c1)c1cc(C(=O)OC)c(OC)c(C(F)(F)F)c1`, the pEC50 was < 3.70 and the pIC50 was 3.98. Taken in the same sequence, the figures for `CC1=CO[C@@H]2O[C@@]3(C)CC[C@H]4[C@H](C)CC[C@@H]1[C@@]24OO3` were < 3.70 and 3.75.

Regarding `CCn1c(SC(C)C(=O)c2c(C)n(C)n(-c3ccccc3)c2=O)nc2ccccc2c1=O` (stereo not drawn), the pEC50 is < 3.95 and the pIC50 is < 3.95. For the compound `Cc1ccc(NC(=O)C(=O)C(C(=O)/C=C/c2ccccc2)C2OC(=O)c3ccccc32)c(C)c1` (stereo not drawn), the pEC50 was < 3.37 and the pIC50 is 4.20.

`C/C(N=NC(=S)N1CC2CCC(CC2)C1)=C1\C=CC=CN1O`: the pEC50 was < 3.80 and the pIC50 is 5.73. Taken in the same sequence, the figures for `Cc1ccc(S(=O)(=O)OCCn2cnc3nc(NC(=O)c4ccccc4)[nH]c(=O)c32)cc1` were < 4.24 and < 4.24. Taken in the same sequence, the figures for `C[C@]12CC[C@@H](O)C[C@H]1CC[C@@H]1[C@@H]2[C@@H](O)C[C@@]2(C)[C@H]1CC[C@]2(O)[C@@H](O)CO` were < 3.70 and < 3.70. Taken in the same sequence, the figures for `O=C1C(c2ccccc2)=C(c2ccccc2)C(c2ccc(CCCCCCc3ccc(C4=C(c5ccccc5)C(=O)C(c5ccccc5)=C4c4ccccc4)cc3)cc2)=C1c1ccccc1` were < 5.91 and < 5.91. On to `Cc1cc(=O)oc2c1ccc1occc(=O)c12`, for which the pEC50 was < 4.00 and the pIC50 is 4.25. On to `CCCCCC=C(c1cc(Cl)c(OC)c(C(=O)NO)c1)c1cc(Cl)c(OC)c(C(=O)NO)c1`, for which the pEC50 was < 3.70 and the pIC50 is 5.71. For `Cc1cn(C2CCC3(CO)CC23)c(=O)[nH]c1=O` (stereo not drawn), the pEC50 is < 4.30 and the pIC50 is < 4.30.

Consider `CC(=O)N1c2ccccc2[C@H]2CCc3c([nH]c4ccccc34)[C@H]21`, for which the pEC50 was < 4.70 and the pIC50 was 4.89. Taken in the same sequence, the figures for `C(/Cc1ccc2c(c1)OCO2)=N\NC1=NCCN1` were < 3.70 and 3.93. With `CN1CCN=C1c1ccc(NC(=O)c2ccc(C(=O)Nc3ccc(C4=NCCN4C)cc3)cc2)cc1`, the pEC50 was < 3.70 and the pIC50 was 4.13. Taken in the same sequence, the figures for `O=C1c2ccccc2C(=O)N1CCn1nc(-c2ccccc2)cc(-c2ccccc2)c1=O` were < 4.91 and < 4.91. Regarding `CC1(C(=O)O)CCC2(C)CCC3(C)C(=CC(=O)C4C5(C)CCC(OC6OC(C(=O)O)C(O)C(O)C6OC6OC(C(=O)O)C(O)C(O)C6O)C(C)(C)C5CCC43C)C2C1` (stereo not drawn), the pEC50 is < 3.52 and the pIC50 is < 3.52. On to `CSc1cc(=O)[nH]c(=O)[nH]1`, for which the pEC50 was < 3.70 and the negative logarithm of the IC50 (pIC50) is < 3.70. Consider `CCCCON1C[C@H](OC(C)=O)C(OC(C)=O)[C@H](OC(C)=O)C1` (stereo partly drawn), for which the pEC50 was < 3.70 and the pIC50 is < 3.70. As for `CC1=CC(=O)C2(C)CC[C@]3(O)CCCC123` (stereo partly drawn), the result was inactive. `O=c1cc(-c2c(O)cc(O)cc2O)oc2cc(O)cc(O)c12`: the pEC50 was < 3.70 and the pIC50 was < 3.70.

Regarding `Nc1ccn(C2OC(CO)CC2F)c(=O)n1` (stereo not drawn), the pEC50 is 6.88 and the negative-log IC50 (pIC50) is 5.15. Regarding `CNC(=S)/C(C#N)=C(\N)N1CCN(C)CC1`, the pEC50 is < 3.70 and the pIC50 is < 3.70. `CCC(CC)(C(=O)O)C(=O)O`: the pEC50 is < 3.70 and the pIC50 was < 3.70.

Consider `CCCCCCCC1(N=[N+]=[N-])C(=O)Nc2ccccc2C1=O` (stereo not drawn), for which the pEC50 was < 3.70 and the pIC50 was 4.70. Taken in the same sequence, the figures for `O=C(Nc1ccccc1C(=O)Nc1nccs1)c1ccccc1` were < 3.70 and 4.49. Taken in the same sequence, the figures for `CCN1CCC(O)(/C=C/c2ccc(C(C)C)cc2)C(C(=O)/C=C/c2ccc(C(C)C)cc2)C1` (stereo not drawn) were < 3.70 and 5.75. Taken in the same sequence, the figures for `CCOC(=O)CCC(=O)C1c2cccc(O)c2C(=O)c2c(O)cccc21` were < 4.55 and 5.31.

On to `Cc1c(/C=C/C(=O)O)no[n+]1[O-]`, for which the pEC50 was < 3.70 and the pIC50 was < 3.70. For the compound `O=C(c1cc2ccccc2o1)N(Cc1ccccc1)c1ccccc1`, the pEC50 is < 4.10 and the pIC50 was < 4.10.

For the compound `COc1ccc(Cc2c(N)[nH]c(=O)n(C)c2=O)cc1`, the pEC50 is < 3.70 and the pIC50 is 4.05. For the compound `CCOC(=O)NC(=O)c1cn(CCN2CCNCC2)c(=O)[nH]c1=O`, the result was inactive.

In the case of `COC(=O)c1c2c(cc3c1CC1(Cc4cc5c(cc4C1=O)CCC5)C3)CCC2` (stereo not drawn), the pEC50 was < 3.70 and the pIC50 is 4.28.

Regarding `CC(=O)N1CCN(C=S)CC1`, the pEC50 was < 2.84 and the pIC50 is < 2.84. For the compound `C=C(Br)CNC(=O)NCCN1CCOCC1`, the pEC50 is < 3.70 and the pIC50 is < 3.70. Take `COC(=O)Cc1c(C2C(CC(=O)OC)c3ccccc3N2C2OC(CO)C(O)C(O)C2O)[nH]c2ccccc12` (stereo not drawn): the pEC50 is 3.95 and the pIC50 is 3.82.

For `COc1ccc(-c2c(C3=NCCCN3)nnn2-c2ccc(Cl)cc2)cc1`, the pEC50 is 4.85 and the pIC50 is 4.07. `CCOC(=O)c1nc2ccccc2nc1NCc1cc(OC)c(OC)c(OC)c1`: the pEC50 is < 3.70 and the pIC50 is 4.56.

Turning to `COc1ccc(/C=C2\SC(=S)NC2=O)cc1`, the pEC50 was < 4.54 and the pIC50 is < 4.54.

In the case of `CC(C)C(/C=C/c1ccccc1)=N\NC(=S)NN`, the pEC50 was < 3.70 and the pIC50 is 3.99.
